{"source": "patent US20120302569A1", "about": "“PHENYL-THIAZOLYL INHIBITORS OF PRO-MATRIX METALLOPROTEINASE ACTIVATION” (priority 2011, published 2012)", "key": {"[1]": {"molecular_target": "T1, MMP9 (Rattus norvegicus, UniProt P50282)", "T1 construct": "Pro and active MMP9 were abundantly present in ankles of SCW-induced vehicle-treated rats; from tissue; host or cells: tibia-tarsus joints (ankles) of female Lewis rats", "T1 sequence (P50282 108-708)": "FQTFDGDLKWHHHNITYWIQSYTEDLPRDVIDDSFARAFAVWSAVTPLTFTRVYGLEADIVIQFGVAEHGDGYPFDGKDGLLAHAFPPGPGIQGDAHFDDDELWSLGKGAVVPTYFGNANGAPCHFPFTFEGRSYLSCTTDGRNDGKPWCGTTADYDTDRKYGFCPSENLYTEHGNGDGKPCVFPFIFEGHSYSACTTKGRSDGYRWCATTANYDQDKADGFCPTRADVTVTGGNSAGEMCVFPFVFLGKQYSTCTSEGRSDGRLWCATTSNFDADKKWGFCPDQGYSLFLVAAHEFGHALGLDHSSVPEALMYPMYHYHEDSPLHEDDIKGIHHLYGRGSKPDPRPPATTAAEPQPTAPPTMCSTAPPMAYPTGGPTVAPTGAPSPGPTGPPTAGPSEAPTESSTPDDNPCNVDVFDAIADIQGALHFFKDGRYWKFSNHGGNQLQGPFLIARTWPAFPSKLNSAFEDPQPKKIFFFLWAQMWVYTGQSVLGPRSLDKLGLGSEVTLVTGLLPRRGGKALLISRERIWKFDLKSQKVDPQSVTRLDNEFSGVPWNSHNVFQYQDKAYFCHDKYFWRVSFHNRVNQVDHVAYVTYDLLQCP", "assay": "Active MMP9 in ankles of rats with SCW-induced arthritis by Western blot", "type": "in vivo", "details": "day 26, four hours after AM dose; FIG. 3A lanes 4-9", "description": "Hind-limbs were skinned, severed just above the tibia-tarsus joint and below the metatarsals, and the tibia-tarsus joints (ankles) were weighed, snap frozen and pulverized on dry ice using a hammer and anvil. The pulverized tissue was suspended in 3 volumes (w:v) of ice-cold homogenization buffer containing 50 mM Tris pH 7.5, 150 mM NaCl, 5 mM EDTA, 1% Triton X100, 0.05% Brij 30, 10% dimethylsulfoxide and Complete EDTA-free Protease Inhibitor Cocktail (Roche Diagnostics). The suspended tissue was homogenized sequentially with a Kinematica AG Polytron and a Dounce homogenizer. Homogenates were centrifuged at 16,000×g for 10 min at 4° C. and the soluble fractions were saved. Dimethylsulfoxide was removed from a portion of each soluble fraction using PD MiniTrap™ G-25 desalting columns (GE Healthcare). Homogenates (0.25 mL), free of DMSO, were diluted with an equal volume of binding buffer (i.e., homogenization buffer without dimethylsufoxide) and adjusted to contain 50 μL of a 50% slurry of gelatin-conjugated sepharose. Following 2 hours of rotation at 4° C. the beads were washed twice in binding buffer and eluted in 100 μL 2×-reducing Laemmli buffer with heating to 95° C. for 5 minutes. […]"}, "[2]": {"tested_on": "rats with SCW-induced arthritis", "assay": "Efficacy in rats with SCW arthritis (ankle thickness, clinical scores)", "type": "in vivo, rat", "excerpt": "A polyarthritis can be induced in female Lewis rats following i.p. administration of streptococcal cell wall (SCW) proteoglycan-polysaccharides (PG-PS) (J Exp Med 1977; 146:1585-1602). The model has an acute phase (days 3-7) that is complement and neutrophil-dependent and that resolves. A chronic erosive phase begins at about day ten and is dependent on the development of specific T cell immunity to the PG-GS, which resists digestion and remains present in synovial macrophages for months. Like rheumatoid arthritis, SCW-induced arthritis is reduced by TNF inhibitors, and the dependence of SCW-induced arthritis on macrophages (Rheumatology; 2001; 40:978-987) and the strong association of rheumatoid arthritis severity with synovial-tissue macrophage counts (Ann Rheum Dis; 2005; 64:834-838) makes SCW-arthritis an attractive model for testing potential therapeutic agents. SCW PG-PS 10S (Beckton Dickinson Cat#210866) suspended in saline was vortexed for 30 seconds and sonicated for 3 min with a probe type sonicator prior to injection. Female Lewis (LEW/N) rats, 5-6 weeks of age (80-100 g) were injected (i.p.) with SCW PG-PS (15 μg of rhamnose/gram BW) in the lower left quadrant of the abdomen using a 1 mL syringe fitted with a 23-gauge needle. Control (disease-free) rats were treated in a similar manner with sterile saline. Control rats were sacrificed on day 5 and groups of SCW-injected rats were sacrificed on day 5 when acute inflammation was maximal or on day 18 when chronic inflammation was established.\nTo induce arthritis, Female Lewis (LEW/N) rats, 5-6 weeks of age (80-100 g) were injected (i.p.) with SCW PG-PS as described above. Eighteen days later, arthritis was well established. Calipers were used to measure the width (anterior to posterior surface) of the left and right hind ankles of each rat. Each ankle was measured 3 times and averaged, and treatment groups were randomized based on ankle thickness (Table 6). Commencing on day 18, randomized groups of arthritic rats (n=5 rats/group) received vehicle or 5, 20, or 50 mg/kg Compound α BID by oral gavage. Vehicle consisted of an aqueous mixture containing 2% (v:v) N-methylpyrrolidone, 5% (v:v) glycerine, and 20% (w:v) captisol. Treatment continued daily through the morning of day 26.\nHind paw inflammation clinical scores were assigned based on swelling and erythema."}}, "data": [{"smiles": "Cc1nc(C)c(-c2csc(Nc3cc(S(N)(=O)=O)ccc3OC(C)C)n2)s1", "note": "[Compound α, 3-(2′,4′-Dimethyl-[4,5′]bithiazolyl-2-ylamino)-4-isopropoxy-benzenesulfonamide.HBr]", "values": [{"measurement": "abundance of proMMP9 in ankles", "setting": "[1]", "result": "did not reduce"}, {"measurement": "ankle thickness measurements", "setting": "[2]; 5, 20, 50 mg/kg BID oral, Day 18-26", "result": "dose-dependent decrease"}, {"measurement": "clinical score measurements", "setting": "[2]; 5, 20, 50 mg/kg BID oral, significant effects emerging at 20 mg/kg", "result": "dose dependent decrease"}, {"measurement": "inhibition at 5 mg/kg", "setting": "[2]; Rattus norvegicus, 5 mg/kg BID oral, Day 18-26, read-out: Day 26 % Inh of disease associated increase in ankle thickness", "result": 27, "unit": "%"}, {"measurement": "inhibition at 20 mg/kg", "setting": "[2]; Rattus norvegicus, 20 mg/kg BID oral, Day 18-26, read-out: Day 26 % Inh of disease associated increase in ankle thickness", "result": 37, "unit": "%"}, {"measurement": "inhibition at 50 mg/kg", "setting": "[2]; Rattus norvegicus, 50 mg/kg BID oral, Day 18-26, read-out: Day 26 % Inh of disease associated increase in ankle thickness", "result": 46, "unit": "%"}]}]}
